Where two headings read alike, the source gives them in different places.
Columns and labels:
rat α4β2 nAChR subtype = rat α4β2 nAChR subtype (Rattus norvegicus (Rat), UniProt P09483+P12390); assay: Radioligand ([3H]nicotine) binding at α4β2 nAChR, rat cortex membranes
Method: Preparation of Membranes from Rat Cortex:
(§1) Rats (female, Sprague-Dawley), weighing 150-250 g, were maintained on a 12 h light/dark cycle and were allowed free access to water and food supplied by PMI Nutrition International, Inc. Animals were anesthetized with 70% CO2, and then decapitated. Brains were removed and placed on an ice-cold platform. […] The homogenate was centrifuged at 18,000×g for 20 min at 4° C. and the resulting pellet was re-suspended in 20 volumes of ice-cold water. After 60 min incubation on ice, a new pellet was collected by centrifugation at 18,000×g for 20 min at 4° C. The final pellet was re-suspended in 10 volumes of buffer and stored at −20° C.
(§2) On the day of the assay, the frozen membranes were thawed and spun at 48,000×g for 20 min. The supernatant was decanted and discarded. The pellet was resuspended in Dulbecco's phosphate buffered saline (PBS, Life Technologies) pH 7.4 and homogenized with the Polytron for 6 seconds. Protein concentrations were determined using a Pierce BCA Protein Assay Kit, with bovine serum albumin as the standard (Pierce Chemical Company, Rockford, Ill.).
(§3) Tissue was rinsed 3 times in PBS, pH 7.4. Scintillation fluid was added to filters containing the washed tissue and allowed to equilibrate.
(§4) Data were expressed as disintegrations per minute (DPMs). Within each assay, each point had 2-3 replicates. The replicates for each point were averaged and plotted against the log of the drug concentration.

human α4β2 nAChR subtype = human α4β2 nAChR subtype (Homo sapiens (Human), UniProt P17787+P43681); assay: Radioligand ([3H]nicotine) binding at α4β2 nAChR, SH-EP1/human α4β2 clonal cell membranes; details: read-out: Human α4β2 Ki
Method: Preparation of Membranes from SH-EP1/Human α4β2 Clonal Cells:
Cell pellets from 40 150 mm culture dishes were pooled, and homogenized by Polytron (Kinematica GmbH, Switzerland) in 20 milliliters of ice-cold preparative buffer. The homogenate was centrifuged at 48,000 g for 20 minutes at 4° C. The resulting pellet was re-suspended in 20 mL of ice-cold preparative buffer and stored at −20° C.
as §2, §3, §4

α7 nAChR subtype = α7 nAChR subtype (Rattus norvegicus (Rat), UniProt Q05941); assay: Radioligand ([3H]MLA) binding at α7 nAChR, rat hippocampus membranes
Method: as §1, with “CO2,” for “CO2, and”, “in 10” for “in 20”
The binding of [^3H]MLA was measured using a modification of the methods of Davies et al., Neuropharmacol. […] [^3H]MLA (Specific Activity=25-35 Ci/mmol) was obtained from Tocris. The binding of [^3H]MLA was determined using a 2 h incubation at 21° C. Incubations were conducted in 48-well micro-titre plates and contained about 200 μg of protein per well in a final incubation volume of 300 μL. The incubation buffer was PBS and the final concentration of [^3H]MLA was 5 nM. The binding reaction was terminated by filtration of the protein containing bound ligand onto glass fiber filters (GF/B, Brandel) using a Brandel Tissue Harvester at room temperature. […] Each filter was washed with PBS (3×1 mL) at room temperature. Non-specific binding was determined by inclusion of 50 μM non-radioactive MLA in selected wells.
The inhibition of [^3H]MLA binding by test compounds was determined by including seven different concentrations of the test compound in selected wells. Each concentration was replicated in triplicate. IC50 values were estimated as the concentration of compound that inhibited 50 percent of specific [^3H]MLA binding.

[1] = [3H]nicotine 5 nM, rat cortex membranes
[2] = [3H]nicotine 5 nM, SH-EP1/human α4β2 membranes
[3] = did not bind sufficiently in HTS at α7 to warrant Ki determination

Sequence of α7 nAChR subtype (Q05941 23-502): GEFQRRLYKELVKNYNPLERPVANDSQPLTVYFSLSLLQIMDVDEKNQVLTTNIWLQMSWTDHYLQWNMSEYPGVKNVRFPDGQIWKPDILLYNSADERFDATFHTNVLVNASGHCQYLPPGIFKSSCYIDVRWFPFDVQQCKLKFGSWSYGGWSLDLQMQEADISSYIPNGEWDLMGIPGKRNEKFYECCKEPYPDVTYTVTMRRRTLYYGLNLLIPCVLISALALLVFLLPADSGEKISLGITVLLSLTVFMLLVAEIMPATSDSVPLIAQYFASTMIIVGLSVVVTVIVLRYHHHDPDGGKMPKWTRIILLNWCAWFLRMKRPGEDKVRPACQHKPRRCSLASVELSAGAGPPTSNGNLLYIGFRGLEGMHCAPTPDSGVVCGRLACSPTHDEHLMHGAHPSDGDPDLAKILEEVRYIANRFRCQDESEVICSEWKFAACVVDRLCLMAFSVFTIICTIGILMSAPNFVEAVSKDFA
Sequence of rat α4β2 nAChR subtype (P09483 31-630): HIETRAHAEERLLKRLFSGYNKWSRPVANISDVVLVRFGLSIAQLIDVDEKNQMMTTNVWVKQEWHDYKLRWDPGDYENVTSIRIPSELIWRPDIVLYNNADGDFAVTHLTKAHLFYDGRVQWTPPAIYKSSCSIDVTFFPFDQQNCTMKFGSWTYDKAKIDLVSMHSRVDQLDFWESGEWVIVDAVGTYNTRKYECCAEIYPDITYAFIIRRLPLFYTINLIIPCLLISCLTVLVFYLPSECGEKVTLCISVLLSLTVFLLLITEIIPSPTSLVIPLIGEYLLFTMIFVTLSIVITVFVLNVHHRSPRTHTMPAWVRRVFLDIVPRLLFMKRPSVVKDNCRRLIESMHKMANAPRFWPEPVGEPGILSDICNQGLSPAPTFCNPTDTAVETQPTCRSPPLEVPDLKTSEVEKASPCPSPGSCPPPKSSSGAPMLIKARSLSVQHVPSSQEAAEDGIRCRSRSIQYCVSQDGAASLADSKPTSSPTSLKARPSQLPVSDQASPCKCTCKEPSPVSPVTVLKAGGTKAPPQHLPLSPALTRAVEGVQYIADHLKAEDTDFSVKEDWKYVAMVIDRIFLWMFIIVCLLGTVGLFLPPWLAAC
Sequence of rat α4β2 nAChR subtype (P12390 25-500): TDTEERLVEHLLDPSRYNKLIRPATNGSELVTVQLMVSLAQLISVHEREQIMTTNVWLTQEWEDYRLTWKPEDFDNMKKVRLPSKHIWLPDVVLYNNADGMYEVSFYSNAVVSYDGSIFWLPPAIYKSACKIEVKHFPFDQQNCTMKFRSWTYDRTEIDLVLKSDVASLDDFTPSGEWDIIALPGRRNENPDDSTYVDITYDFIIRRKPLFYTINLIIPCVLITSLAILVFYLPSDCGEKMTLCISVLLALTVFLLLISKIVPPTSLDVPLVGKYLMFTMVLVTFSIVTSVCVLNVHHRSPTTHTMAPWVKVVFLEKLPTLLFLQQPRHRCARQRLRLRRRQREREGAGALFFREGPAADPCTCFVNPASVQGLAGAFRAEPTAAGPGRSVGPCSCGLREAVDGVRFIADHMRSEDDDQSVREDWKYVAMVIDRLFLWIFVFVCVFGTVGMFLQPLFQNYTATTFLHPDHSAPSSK
Sequence of human α4β2 nAChR subtype (P43681 29-627): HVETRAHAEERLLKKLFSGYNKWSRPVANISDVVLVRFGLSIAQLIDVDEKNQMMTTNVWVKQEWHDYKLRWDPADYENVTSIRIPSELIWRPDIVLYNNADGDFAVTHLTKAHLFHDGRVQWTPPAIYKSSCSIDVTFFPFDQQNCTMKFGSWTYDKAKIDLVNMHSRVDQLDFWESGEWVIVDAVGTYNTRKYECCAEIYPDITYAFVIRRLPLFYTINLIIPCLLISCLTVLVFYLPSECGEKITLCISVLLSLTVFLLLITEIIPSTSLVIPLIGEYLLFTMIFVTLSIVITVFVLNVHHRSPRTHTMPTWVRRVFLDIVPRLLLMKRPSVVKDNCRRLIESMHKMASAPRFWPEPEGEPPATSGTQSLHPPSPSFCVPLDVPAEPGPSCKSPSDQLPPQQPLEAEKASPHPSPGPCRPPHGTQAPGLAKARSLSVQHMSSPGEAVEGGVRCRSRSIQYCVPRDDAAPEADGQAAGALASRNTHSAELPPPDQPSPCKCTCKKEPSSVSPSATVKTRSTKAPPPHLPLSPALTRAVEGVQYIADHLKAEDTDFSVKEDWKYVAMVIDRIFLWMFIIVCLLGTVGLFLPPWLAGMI
Sequence of human α4β2 nAChR subtype (P17787 26-502): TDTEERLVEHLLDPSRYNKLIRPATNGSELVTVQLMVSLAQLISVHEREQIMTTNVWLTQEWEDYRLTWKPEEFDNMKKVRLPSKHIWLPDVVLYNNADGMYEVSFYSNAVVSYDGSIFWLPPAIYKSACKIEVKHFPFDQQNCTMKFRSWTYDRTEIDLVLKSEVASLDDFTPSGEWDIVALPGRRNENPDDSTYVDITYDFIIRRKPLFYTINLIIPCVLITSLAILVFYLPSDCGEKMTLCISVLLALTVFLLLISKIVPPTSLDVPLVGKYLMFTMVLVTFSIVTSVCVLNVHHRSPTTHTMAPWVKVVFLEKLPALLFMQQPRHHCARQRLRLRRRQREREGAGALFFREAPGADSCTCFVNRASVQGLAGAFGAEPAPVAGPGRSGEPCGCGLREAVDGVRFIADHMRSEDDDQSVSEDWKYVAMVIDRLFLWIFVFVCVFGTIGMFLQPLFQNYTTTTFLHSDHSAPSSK

In the case of `CCCCC#Cc1coc(C(=O)N2CC3CNCC3C2)c1` (centres unmarked), the Ki (rat α4β2 nAChR subtype; [1]) is reported as 43 nM, the Ki (human α4β2 nAChR subtype; [2]) is reported as 21 nM and the “α7 high through-put screening outcome (Ki not determined)” value (α7 nAChR subtype; [3]) is reported as “ND; failed HTS”.

`O=C(c1occc1Cl)N1CC2CNCC2C1` (centres unmarked) was tested, and the Ki (rat α4β2 nAChR subtype; [1]) was 2.8 nM, the Ki (human α4β2 nAChR subtype; [2]) was 2.4 nM and the “α7 high through-put screening outcome (Ki not determined)” value (α7 nAChR subtype; [3]) was “ND; failed HTS”.

For `O=C(c1ccc(F)o1)N1CC2CNCC2C1` (centres unmarked), the Ki (rat α4β2 nAChR subtype; [1]) was 8.3 nM, the Ki (human α4β2 nAChR subtype; [2]) was 16 nM and the “α7 high through-put screening outcome (Ki not determined)” value (α7 nAChR subtype; [3]) was “ND; failed HTS”.

In the case of `O=C(c1cc(Br)c(Br)o1)N1CC2CNCC2C1` (centres unmarked), the “α7 high through-put screening outcome (Ki not determined)” value (α7 nAChR subtype; [3]) is reported as “ND; failed HTS”.

In the case of `O=C(c1occc1F)N1CC2CNCC2C1` (centres unmarked), the Ki (rat α4β2 nAChR subtype; [1]) is reported as 35 nM, the Ki (human α4β2 nAChR subtype; [2]) is reported as 27 nM and the “α7 high through-put screening outcome (Ki not determined)” value (α7 nAChR subtype) is reported as “ND; failed HTS”.

For `N#Cc1ccoc1C(=O)N1CC2CNCC2C1` (centres unmarked), the Ki (rat α4β2 nAChR subtype) was 25 nM, the Ki (human α4β2 nAChR subtype) was 14 nM and the “α7 high through-put screening outcome (Ki not determined)” value (α7 nAChR subtype) was “ND; failed HTS”.

`O=C(c1cc(Cl)co1)N1CC2CNCC2C1` (centres unmarked) was tested, and the Ki (rat α4β2 nAChR subtype; [1]) was 21 nM, the Ki (human α4β2 nAChR subtype; [2]) was 9.7 nM and the “α7 high through-put screening outcome (Ki not determined)” value (α7 nAChR subtype; [3]) was “ND; failed HTS”.

With `O=C(c1ccon1)N1CC2CNCC2C1` (centres unmarked) the Ki (rat α4β2 nAChR subtype; [1]) was 89 nM, the Ki (human α4β2 nAChR subtype; [2]) was 90 nM and the “α7 high through-put screening outcome (Ki not determined)” value (α7 nAChR subtype; [3]) was “ND; failed HTS”.

For `O=C(c1cc(F)co1)N1CC2CNCC2C1` (centres unmarked), the Ki (rat α4β2 nAChR subtype; [1]) was 36 nM, the Ki (human α4β2 nAChR subtype; [2]) was 21 nM and the “α7 high through-put screening outcome (Ki not determined)” value (α7 nAChR subtype; [3]) was “ND; failed HTS”.

In the case of `C#Cc1ccc(C(=O)N2CC3CNCC3C2)o1` (centres unmarked), the Ki (rat α4β2 nAChR subtype; [1]) is reported as 140 nM, the Ki (human α4β2 nAChR subtype; [2]) is reported as 48 nM and the “α7 high through-put screening outcome (Ki not determined)” value (α7 nAChR subtype; [3]) is reported as “ND; failed HTS”.

`N#Cc1ccc(C(=O)N2CC3CNCC3C2)o1` (centres unmarked) was tested, and the Ki (rat α4β2 nAChR subtype; [1]) was 50 nM, the Ki (human α4β2 nAChR subtype) was 40 nM and the “α7 high through-put screening outcome (Ki not determined)” value (α7 nAChR subtype; [3]) was “ND; failed HTS”.

In the case of `Cc1cc(F)c(C(=O)N2CC3CNCC3C2)o1` (centres unmarked), the Ki (rat α4β2 nAChR subtype) is reported as 65 nM, the Ki (human α4β2 nAChR subtype; [2]) is reported as 14 nM and the “α7 high through-put screening outcome (Ki not determined)” value (α7 nAChR subtype; [3]) is reported as “ND; failed HTS”.

`O=C(c1ccno1)N1CC2CNCC2C1` (centres unmarked) was tested, and the Ki (rat α4β2 nAChR subtype; [1]) was 43 nM, the Ki (human α4β2 nAChR subtype; [2]) was 69 nM and the “α7 high through-put screening outcome (Ki not determined)” value (α7 nAChR subtype) was “ND; failed HTS”.

For `O=C(c1occc1Br)N1CC2CNCC(C2)C1`, the Ki (rat α4β2 nAChR subtype; [1]) was 79 nM, the Ki (human α4β2 nAChR subtype) was 17 nM and the “α7 high through-put screening outcome (Ki not determined)” value (α7 nAChR subtype; [3]) was “ND; failed HTS”.

For `O=C(c1ccc(Br)o1)N1CC2CNCC(C2)C1`, the Ki (rat α4β2 nAChR subtype) was 41 nM, the Ki (human α4β2 nAChR subtype; [2]) was 51 nM and the “α7 high through-put screening outcome (Ki not determined)” value (α7 nAChR subtype; [3]) was “ND; failed HTS”.

`Cc1ccc(C(=O)N2CC3CNCC(C3)C2)o1` was tested, and the Ki (rat α4β2 nAChR subtype; [1]) was 100 nM, the Ki (human α4β2 nAChR subtype; [2]) was 42 nM and the “α7 high through-put screening outcome (Ki not determined)” value (α7 nAChR subtype) was “ND; failed HTS”.

`COc1cc(C(=O)N2CC3CNCC(C3)C2)on1` was tested, and the Ki (rat α4β2 nAChR subtype) was 33 nM, the Ki (human α4β2 nAChR subtype; [2]) was 180 nM and the “α7 high through-put screening outcome (Ki not determined)” value (α7 nAChR subtype; [3]) was “ND; failed HTS”.

In the case of `O=C(c1cc(Br)no1)N1CC2CNCC(C2)C1`, the Ki (rat α4β2 nAChR subtype; [1]) is reported as 5.9 nM, the Ki (human α4β2 nAChR subtype) is reported as 18 nM and the “α7 high through-put screening outcome (Ki not determined)” value (α7 nAChR subtype; [3]) is reported as “ND; failed HTS”.

`CC(=O)Nc1ccc(C(=O)N2CC3CNCC(C3)C2)o1` was tested, and the Ki (rat α4β2 nAChR subtype; [1]) was 87 nM, the Ki (human α4β2 nAChR subtype; [2]) was 210 nM and the “α7 high through-put screening outcome (Ki not determined)” value (α7 nAChR subtype; [3]) was “ND; failed HTS”.

`Cc1cc(C(=O)N2CC3CNCC(C3)C2)no1` was tested, and the Ki (rat α4β2 nAChR subtype) was 68 nM, the Ki (human α4β2 nAChR subtype) was 96 nM and the “α7 high through-put screening outcome (Ki not determined)” value (α7 nAChR subtype; [3]) was “ND; failed HTS”.

In the case of `Cc1cc(C(=O)N2CC3CNCC(C3)C2)on1`, the Ki (rat α4β2 nAChR subtype) is reported as 29 nM, the Ki (human α4β2 nAChR subtype; [2]) is reported as 47 nM and the “α7 high through-put screening outcome (Ki not determined)” value (α7 nAChR subtype; [3]) is reported as “ND; failed HTS”.

With `O=C(c1cc(C2CC2)on1)N1CC2CNCC(C2)C1` the Ki (rat α4β2 nAChR subtype) was 25 nM, the Ki (human α4β2 nAChR subtype; [2]) was 83 nM and the “α7 high through-put screening outcome (Ki not determined)” value (α7 nAChR subtype; [3]) was “ND; failed HTS”.

With `O=C(c1occc1Cl)N1CC2CNCC(C2)C1` the Ki (rat α4β2 nAChR subtype) was 96 nM, the Ki (human α4β2 nAChR subtype; [2]) was 29 nM and the “α7 high through-put screening outcome (Ki not determined)” value (α7 nAChR subtype; [3]) was “ND; failed HTS”.

`O=C(c1cc(Br)c(Br)o1)N1CC2CNCC(C2)C1` was tested, and the “α7 high through-put screening outcome (Ki not determined)” value (α7 nAChR subtype; [3]) was “ND; failed HTS”.

With `O=C(c1cc(Cl)co1)N1CC2CNCC(C2)C1` the Ki (rat α4β2 nAChR subtype) was 13 nM, the Ki (human α4β2 nAChR subtype; [2]) was 5.2 nM and the “α7 high through-put screening outcome (Ki not determined)” value (α7 nAChR subtype; [3]) was “ND; failed HTS”.

With `Cc1oc(C(=O)N2CC3CNCC(C3)C2)cc1Br` the Ki (rat α4β2 nAChR subtype) was 7.5 nM, the Ki (human α4β2 nAChR subtype; [2]) was 5.2 nM and the “α7 high through-put screening outcome (Ki not determined)” value (α7 nAChR subtype; [3]) was “ND; failed HTS”.

With `N#Cc1ccc(C(=O)N2CC3CNCC(C3)C2)o1` the Ki (rat α4β2 nAChR subtype) was 35 nM, the Ki (human α4β2 nAChR subtype) was 8.7 nM and the “α7 high through-put screening outcome (Ki not determined)” value (α7 nAChR subtype; [3]) was “ND; failed HTS”.
